# Measured values: patent US20100184603A1, “Alcohol alkoxylates, compositions containing these, and use of the alcohol alkoxylates as adjuvants for the agrochemical field” (BASF SE, priority 2007, published 2010)
# System: leaf rust of wheat "Puccinia recondita"
# Experiment: Biotest: curative control of leaf rust of wheat
# Assay type: in vivo
# Settings: wheat seedlings "Kanzler", curative spray 2 days after inoculation; 50 ppm epoxiconazole without adjuvant; disease percent of total leaf area after 10 days
# Procedure: 125 g/l epoxiconazole were ground together with in each case 20 g/l dispersant (Atlas G 5000^1, Synperonic A^1) and 50 g/l propylene glycol in aqueous medium in a stirred-ball mill (dyno-mill) until a particle size of 80%<2 μm was reached. To the mixture were added 3 g/l per liter antifoam, for example Rhodorsil 426^2, 3 g/l thickener, for example Rhodopol 23^2, and a biocide, for example Acticide MBS^3. The respective adjuvant, in aqueous solution or in a solvent, for example Solvesso, was stirred into this mixture, so that the final concentration of the formulation is composed of 62.5 g/l epoxiconazole and 125 g/l adjuvant. ^1Uniquema/Croda^2Rhodia^3Thor Chemie
# Biotest (Curative Control of Leaf Rust of Wheat):
# Leaves of wheat seedlings of the species “Kanzler” which had been grown in pots were dusted, in the two-leaf stage, with spores of leaf rust of wheat “Puccinia recondita” and incubated for 2 days in the greenhouse at high atmospheric humidity. In fully automated spray cabins, the plants were then sprayed with the formulations which comprised the active ingredients and adjuvants specified hereinbelow. The spray mixtures comprised 50 ppm epoxiconazole and 100 ppm adjuvant. […] After 10 days, the extent of the leaf rust disease was determined visually as disease percent of the total leaf area. 3 pots were evaluated for each combination.
compound,measurement,value
Fc1ccc([C@]2(Cn3cncn3)O[C@H]2c2ccccc2Cl)cc1 (racemic) [Epoxiconazole],% infection,40%
